Reference: ChEMBL document CHEMBL1133350, “Novel DMARDs on the basis of a new concept of dual cytokine regulation, TNF-alpha suppression and IL-10 augmentation” (Bioorg Med Chem Lett, 2000)

Experiments:
Mus musculus [1] = assay: Inhibit tumor necrosis factor alpha production in LPS-stimulated mice after peroral administration of 10 mg/kg; type: functional; settings: route oral
Mus musculus [2] = assay: The compound (10 mg/kg) administered perorally was tested for its ability to augment IL-10 in LPS-stimulated mice; type: functional
Rattus norvegicus [3] = assay: The compound (10 mg/kg) was tested for its therapeutic effect in an adjuvant-induced arthritis rat; type: functional
[4] = Partition coefficient (logP); settings: octanol/water
[5] = Bioavailability of the compound in rats after administration of 30 mg/kg; type: ADME, organism-based; settings: rat, in vivo, read-out: Bioavailabiility
Rattus norvegicus [6] = assay: The compound (30 mg/kg) was tested for its therapeutic effect in an adjuvant-induced arthritis rat; type: functional

Row | SMILES | inhibition in vivo at 10 mg/kg (Mus musculus [1]) | IL-10 level (% of control) (Mus musculus [2]) | Therapeutic effect (Rattus norvegicus [3]) | logP [4] | bioavailability [5] | Therapeutic effect (Rattus norvegicus [6])
1 | CC(=O)NCc1ccc(CN2CCN(c3ccccn3)CC2)cc1 | 88% | 642% | 62% | 0.88 |  | 
2 | CC(=O)NC1(c2ccc(CN3CCN(c4ccccc4)CC3)cc2)CC1 | 90% | 712% |  | 1.9 |  | 
3 | CC(=O)NC(C)(C)c1ccc(CN2CCN(c3nccs3)CC2)cc1 | 85% | 712% | 131% | 2.01 |  | 
4 | CC(=O)NC(C)c1ccc(CN2CCN(c3nccs3)CC2)cc1 (stereo unspecified) | 84% | 621% | 101% | 1.76 |  | 
5 | CC(=O)NCc1ccc(CN2CCN(c3nccn3C)CC2)cc1 | 62% | 747% |  | 0.67 |  | 
6 | CC(=O)NC(C)(C)c1ccc(CN2CCN(c3cccc(F)n3)CC2)cc1 | 88% | 579% | 142% | 2.24 |  | 
7 | CC(=O)NCc1ccc(CN2CCN(c3cccc(F)n3)CC2)cc1 | 85% | 973% | 144% | 1.45 |  | 
8 | CC(=O)NCc1ccc(CN2CCN(c3ncccn3)CC2)cc1 | 82% | 713% | 46% | 0.4 |  | 
9 | CC(=O)NCc1ccc(CN2CCN(c3cnccn3)CC2)cc1 | 76% | 334% |  | -0.09 |  | 
10 | CCC(NC(C)=O)c1ccc(CN2CCN(c3ccccc3)CC2)cc1 (stereo unspecified) | 82% | 222% |  | 2.59 |  | 
11 | CC(=O)NCc1ccc(CN2CCN(c3nccs3)CC2)cc1 | 85% | 1150% | 80% | 1.23 |  | 
12 | CC(=O)NC(C)c1ccc(CN2CCN(c3cccc(F)n3)CC2)cc1 (stereo unspecified) | 82% | 404% | 173% | 1.99 |  | 
13 | CCC(CC)(NC(C)=O)c1ccc(CN2CCN(c3ccccc3)CC2)cc1 | 81% | 321% |  | 3.35 |  | 
14 | CC(=O)NCc1ccc(CN2CCN(c3ccncc3)CC2)cc1 | 40% | 198% |  | 0.51 |  | 
15 | CC(=O)NCc1ccc(CN2CCN(c3cccnc3)CC2)cc1 | 61% | 236% |  | 0.49 |  | 
16 | CC(=O)NC(C)c1ccc(CN2CCN(c3ccccc3)CC2)cc1 (stereo unspecified) | 87% | 270% |  | 2.08 |  | 
17 | CC(=O)NC1(c2ccc(CN3CCN(c4ncccn4)CC3)cc2)CC1 | 88% | 419% | 163% | 0.75 | 76% | 
18 | CC(=O)NCc1ccc(CN2CCN(c3ccccc3)CC2)cc1 | 89% | 376% |  | 1.55 |  | 35%
19 | CC(=O)NC1(c2ccc(CN3CCN(c4cccc(F)n4)CC3)cc2)CC1 | 84% | 454% | 55% | 1.8 |  | 
20 | CC(=O)NC1(c2ccc(CN3CCN(c4nccs4)CC3)cc2)CC1 | 84% | 646% | 133% | 1.58 |  | 
21 | CC(=O)NC(C)c1ccc(CN2CCN(c3ncccn3)CC2)cc1 (stereo unspecified) | 78% | 298% |  | 0.93 |  | 
22 | CC(=O)NC(C)(C)c1ccc(CN2CCN(c3ccccc3)CC2)cc1 | 88% | 561% |  | 2.83 |  | 80%
23 | CC(=O)NC(C)(C)c1ccc(CN2CCN(c3ncccn3)CC2)cc1 | 77% | 200% |  | 1.18 |  | 
24 | CC(=O)NCc1ccc(CN2CCN(c3ccc(F)cc3F)CC2)cc1 | 91% | 2293% |  |  |  | 173%
